In experiment [1] the test system is rapidly dividing keratinocytes. The experiment in a line: Assay of DNA synthesis ([3H]thymidine incorporation) in rapidly dividing keratinocytes. As to conditions: for effect on DNA synthesis ([3H]thymidine incorporation into DNA) / effect on DNA synthesis in presence of 125 μM Ca2+ / concentration of maximal inhibition of DNA synthesis / inhibition of DNA synthesis compared with egg-derived PG / lowest concentration at which inhibition of DNA synthesis was observed / inhibition of DNA synthesis, percent of control (in words): 24 hours; for effect on DNA synthesis ([3H]thymidine incorporation into DNA): control (25 μM Ca2+) medium; for effect on DNA synthesis in presence of 125 μM Ca2+: 125 μM Ca2+ medium; for concentration of maximal inhibition of DNA synthesis / inhibition of DNA synthesis compared with egg-derived PG / lowest concentration at which inhibition of DNA synthesis was observed: liposomes; for inhibition of DNA synthesis compared with egg-derived PG / lowest concentration at which inhibition of DNA synthesis was observed: FIG. 20A; for inhibition of DNA synthesis, percent of control (in words) / concentration at which DNA synthesis was inhibited: FIG. 21B; for inhibition of DNA synthesis, percent of control (in words): PG versus PP headgroup species; for concentration at which DNA synthesis was inhibited: lowest tested 25 μg/mL, highest tested 100 μg/mL. In kind it is cell-based. Here is the method: (§1) Keratinocytes were prepared from ICR CD-I outbred mice in accordance with a protocol approved by the Institutional Animal Care and Use Committee. Briefly, the skins were harvested and incubated overnight in 0.25% trypsin at 4° C. The epidermis and dermis were separated and basal keratinocytes scraped from the underside of the epidermis. The cells were collected by centrifugation and incubated overnight in an atmosphere of 95% air/5% carbon dioxide at 37° C. in plating medium as described in Dodd M E, Ristich V L, Ray S, Lober R M, Bollag W B (2005) Regulation of protein kinase D during differentiation and proliferation of primary mouse keratinocytes. J Invest Dermatol 125:294-306, incorporated herein by reference. The plating medium was replaced with serum-free keratinocyte medium (SFKM) also as in Dodd, et al., and the cells were refed every 1-2 days with fresh medium until use.
(§2) [^3H]Thymidine incorporation into DNA was determined as a measure of DNA synthesis as previously described by Griner, et al., above. Near-confluent keratinocyte cultures were incubated for 24 hours in SFKM containing the indicated additions. PG was added in the form of liposomes prepared by bath sonication of dried PG in SFKM to make a stock solution of 2 mg/mL. [^3H]Thymidine at a final concentration of 1 μCi/mL was then added to the cells for an additional 1-hour incubation. Reactions were terminated by washing with PBS- and macromolecules precipitated with ice-cold 5% trichloroacetic acid. Cells were solubilized in 0.3 M NaOH and the radioactivity incorporated into DNA quantified by liquid scintillation spectroscopy.
(§3) [^3H]Thymidine incorporation was used as a measure of DNA synthesis and was performed as described in Example 2. Liposomes containing PG and functional derivatives thereof were prepared by bath sonication as described in Example 2, with the exception that different concentrations of material were employed.
(In general: Incorporation of labelled thymidine or its analogues reports DNA synthesis.)

Experiment [2] concerns slowly dividing keratinocytes. The experiment can be described thus: Assay of DNA synthesis ([3H]thymidine incorporation) in slowly proliferating keratinocytes. The format is cell-based, mouse. As to conditions: liposomes, 24 hours; for lowest concentration at which stimulation of DNA synthesis was observed / stimulation of DNA synthesis compared with egg-derived PG: FIG. 20B; for effect on DNA synthesis ([3H]thymidine incorporation into DNA): keratinocytes with reduced proliferation. The procedure:
Confluent keratinocytes were treated for 24 hours with the indicated concentrations of phosphatidylglycerol (PG), prepared via bath sonication of PG in serum-free keratinocyte medium. [^3H]Thymidine incorporation into DNA was then determined as above. [^3H]Thymidine incorporation into DNA under control conditions was 12,880±1,040 cpm/well. Values represent the means±SEM of 3 separate experiments performed in duplicate; *p<0.01, **p<0.001 versus the control value.
as §1, §2, §3

Experiment [3] concerns primary epidermal keratinocytes. The experiment in a line: Radiolabeled phosphatidylglycerol formation in intact keratinocytes. The format is cell-based, mouse. Here is the method: Primary epidermal keratinocytes were prepared from 1-3-day old neonatal ICR mice after trypsin flotation of the skin and mechanical separation of the epidermis from the dermis. The epidermal cells were released by scraping, collected by centrifugation and plated in 6-well dishes in a medium consisting of MEM containing 25 μM calcium, 2% dialyzed fetal bovine serum, 2 mM glutamine, 5 ng/mL EGF, ITS (6.25 μg/mL insulin+6.25 μg/mL transferrin+6.25 ng/mL selenious acid+5.35 μg/mL linoleic acid+1.25% bovine serum albumin), 100 U/mL penicillin, 100 μg/mL streptomycin and 0.25 μg/mL fungizone. After an overnight incubation, the cells were refed with serum-free keratinocyte medium (SFKM), in which 2% dialyzed fetal bovine serum was replaced with 90 μg/mL bovine pituitary extract. Cells were refed with fresh medium every 1-3 days.
For the PLD assay cultured primary keratinocytes were labeled for 20-24 hours with 2.5 μCi/ml [^3H] oleic acid. The cells were then exposed to vehicle or 100 nM PMA in the presence of 0.5% ethanol for 30 minutes. To measure the formation of radiolabeled phosphatidylglycerol, cells were treated for 24 hours with SFKM containing vehicle, 250 nM 1,25-dihydroxyvitamin D3 or 125 μM calcium and then labeled for an additional 30 minutes with 1-2.5 μCi/mL [^3H] or 0.4-0.5 μCi/mL [^14C]glycerol. For experiments investigating the extracellular calcium dependence of PG formation, cells were incubated for 24 hours in SFKM containing various calcium concentrations prior to the addition of 5 μCi/mL [^3H]glycerol for 30 minutes. In some cases, cells were stimulated with 25 μM calcium (control)—or 125 μM calcium-containing SFKM for 24 hours prior to the addition of [^14C]glycerol in the presence and absence of 1% ethanol. To measure phosphatidylglycerol formation in response to PMA, unlabeled cells were stimulated with 100 nM PMA in the presence of radiolabeled glycerol, as above. Reactions were terminated and the radiolabeled phosphatidylalcohol extracted, separated by thin-layer chromatography and quantified as described by Bollag (1998), referenced above.

The subject of another experiment is AQP3 null mutant mouse. As to conditions: studies of the AQP3 null mutant mouse; cited from earlier work.

The values below come from patent publication US8808715B1, “Methods and compositions for modulating keratinocyte function” (Georgia Regents Research Institute, Inc, priority 2004, dated 2014).

Turning to `CCCCCCCC/C=C\CCCCCCCC(=O)OC[C@H](COP(=O)(O)OCC(O)CO)OC(=O)CCCCCCC/C=C\CCCCCCCC` (some centres unmarked) [DOPG, dioleoyl-PG], the “effect on DNA synthesis ([3H]thymidine incorporation into DNA)” value in experiment [1] is given as “no inhibition of DNA synthesis”. For the same molecule, in experiment [2], the “concentration of maximal stimulation of DNA synthesis” value stood at 100 µg/mL, the “lowest concentration at which stimulation of DNA synthesis was observed” value was 12.5 µg/mL, the “stimulation of DNA synthesis compared with egg-derived PG” value is given as “more potently than egg-derived PG” and the “effect on DNA synthesis ([3H]thymidine incorporation into DNA)” value was “potent stimulator of DNA synthesis”.

Take `CCCCCCCCCCCCCCCC(=O)OCC(COP(=O)(O)OCC(O)CO)OC(=O)CCCCCCCCCCCCCCC` (centres unmarked) [DPPG, dipalmitoyl-PG]: in experiment [2], the “lowest concentration at which stimulation of DNA synthesis was observed” value stood at 50 µg/mL and the “stimulation of DNA synthesis compared with egg-derived PG” value is recorded as “approximately the same level as egg-derived PG”.

As for `C=C1/C(=C\C=C2/CCC[C@]3(C)[C@@H]([C@H](C)CCCC(C)(C)O)CC[C@@H]23)C[C@@H](O)C[C@@H]1O` [1,25-dihydroxyvitamin D3], the “radiolabeled PG formation relative to control cells” value in experiment [3] (24 hours pretreatment (250 nM 1,25-dihydroxyvitamin D3 or 125 μM calcium), then [3H]glycerol 30 minutes) is “did not increase radiolabeled PG formation”. Further, in experiment [3] (intermediate (10 nM) and high (250 nM) concentrations, 24 hours), the PG production entry is given as “significantly inhibited PG production”.

For `OCCCO` [1,3-propylene glycol], the “correction of the epidermal phenotype of the knockout model” value (“correction” below) with AQP3 null mutant mouse was “not”.

Take `CC(O)CO` (centres unmarked) [1,2-propylene glycol]: in experiment [1], the “effect on DNA synthesis in presence of 125 μM Ca2+” value (“effect on DNA synthesis in presence” below) is given as “dose dependent inhibition” and the “effect on DNA synthesis ([3H]thymidine incorporation into DNA)” value is “dose dependent inhibition”. In addition, the “correction” value in the experiment on AQP3 null mutant mouse was “not”.

Take `CCCCC/C=C\C/C=C\C/C=C\C/C=C\CCCC(=O)O[C@H](COC(=O)CCCCCCCCCCCCCCC)COP(=O)(O)OCC(O)CO` (some centres unmarked) [PAPG, palmitoyl-arachidonoyl-PG]: in experiment [1], the “effect on DNA synthesis ([3H]thymidine incorporation into DNA)” value is listed as “inhibit DNA synthesis in a dose dependent manner”, the “concentration of maximal inhibition of DNA synthesis” value is 100 µg/mL, the “inhibition of DNA synthesis compared with egg-derived PG” value was “at least as strongly as egg-derived PG” and the “lowest concentration at which inhibition of DNA synthesis was observed” value (“lowest concentration at which inhibition” for short) was 12.5 µg/mL. Moreover, in experiment [2], the “effect on DNA synthesis ([3H]thymidine incorporation into DNA)” value was “only mildly stimulatory”.

In the case of palmitoyl-linoleoyl-PG [PLPG], in experiment [1], the “effect on DNA synthesis ([3H]thymidine incorporation into DNA)” value is “inhibit DNA synthesis in a dose dependent manner”, the “concentration of maximal inhibition of DNA synthesis” value came out at 100 µg/mL, the “inhibition of DNA synthesis compared with egg-derived PG” value is “at least as strongly as egg-derived PG” and the “lowest concentration at which inhibition” value was 50 µg/mL.

Consider `CCCCCCCC/C=C\CCCCCCCC(=O)O[C@H](COC(=O)CCCCCCCCCCCCCCC)COP(=O)(O)OCC(O)CO` (some centres unmarked) [POPG, palmitoyl-oleoyl-PG], for which, in experiment [1], the “effect on DNA synthesis ([3H]thymidine incorporation into DNA)” value was “moderate inhibition of DNA synthesis” and the “lowest concentration at which inhibition” value was 100 µg/mL. For the same molecule, in experiment [2], the “effect on DNA synthesis ([3H]thymidine incorporation into DNA)” value was “only mildly stimulatory”.

For `CCO` [ethanol], the “basal (control) PG production” value in experiment [3] (1% ethanol, 25 μM calcium control cells) is reported as “without affecting basal (control) PG production”. For the same molecule, the “PG formation stimulated by preexposure to elevated extracellular calcium” value in experiment [3] (1% ethanol, cells pretreated with 125 μM calcium, [14C]glycerol) is “significantly inhibited PG formation”.

As for `CCCCCC(=O)OCC(COP(=O)(O)OCC(O)CO)OC(=O)CCCCC` (centres unmarked) [DHPG, dihexanoyl-PG], the “effect on DNA synthesis ([3H]thymidine incorporation into DNA)” value in experiment [2] is “only mildly stimulatory”.

As for `CCCCCCCCCCCCCCCC(=O)OC[C@H](COP(=O)(O)OCCC)OC(=O)CCCCCCCCCCCCCCC` [DPPP, dipalmitoyl-PP], in experiment [1], the “effect on DNA synthesis ([3H]thymidine incorporation into DNA)” value is “did not affect DNA synthesis” and the “inhibition of DNA synthesis, percent of control (in words)” value was “lack of effect”.

With `OC[C@@H](O)[C@H](O)[C@@H](O)CO` [xylitol], in experiment [1], the “effect on DNA synthesis in presence” value is listed as “no significant effect” and the “effect on DNA synthesis ([3H]thymidine incorporation into DNA)” value is recorded as “no significant effect”. Also, the “correction” value in the experiment on AQP3 null mutant mouse is recorded as “not”.

In the case of `CCCCCCCC/C=C\CCCCCCCC(=O)OC[C@H](COP(=O)(O)OCCC)OC(=O)CCCCCCC/C=C\CCCCCCCC` [DOPP, dioleoyl-phosphatidylpropanol], in experiment [1], the “effect on DNA synthesis ([3H]thymidine incorporation into DNA)” value was “no impact on DNA synthesis” and the “inhibition of DNA synthesis, percent of control (in words)” value is recorded as “lack of effect”.

On to `OC[C@@H](O)[C@@H](O)[C@H](O)[C@@H](O)CO` [sorbitol], for which, in experiment [1], the “effect on DNA synthesis in presence” value is given as “no significant effect” and the “effect on DNA synthesis ([3H]thymidine incorporation into DNA)” value is on record as “no significant effect”.

`CCCCC/C=C\C/C=C\CCCCCCCC(=O)OC[C@H](COP(=O)(O)OCCC)OC(=O)CCCCCCC/C=C\C/C=C\CCCCC` [DLPP, dilinoleoyl-PP]: in experiment [1], the “inhibition of DNA synthesis, percent of control (in words)” value was “not statistically significant” and the “concentration at which DNA synthesis was inhibited” value amounted to 100 µg/mL.

With `CCCCC/C=C\C/C=C\CCCCCCCC(=O)OC[C@H](COP(=O)(O)OCC(O)CO)OC(=O)CCCCCCC/C=C\C/C=C\CCCCC` (some centres unmarked) [DLPG, dilinoleoyl-PG], in experiment [1], the “effect on DNA synthesis ([3H]thymidine incorporation into DNA)” value is reported as “inhibit DNA synthesis in a dose dependent manner”, the “concentration at which DNA synthesis was inhibited” value is at most 25 µg/mL, the “concentration of maximal inhibition of DNA synthesis” value was 100 µg/mL and the “inhibition of DNA synthesis compared with egg-derived PG” value was “at least as strongly as egg-derived PG”. Moreover, in experiment [1], the “lowest concentration at which inhibition” value came to 6.25 µg/mL.
